Columns and labels:
[1] = target: T1, human IRE1 (hIRE1, IRE1α) (Homo sapiens, UniProt O75460); test: MST displacement of fluorescent Kinase Tracer […] (positive control); format: binding
T1 construct: gene ERN1; aa 465-977, His & GST Tag

[2] = target: T1, human IRE1 (hIRE1, IRE1α); test: in vitro RNase cleavage assay, recombinant IRE1, fluorescence-quenched mini XBP1 RNA probe; format: biochemical

T1 sequence (O75460 465-977): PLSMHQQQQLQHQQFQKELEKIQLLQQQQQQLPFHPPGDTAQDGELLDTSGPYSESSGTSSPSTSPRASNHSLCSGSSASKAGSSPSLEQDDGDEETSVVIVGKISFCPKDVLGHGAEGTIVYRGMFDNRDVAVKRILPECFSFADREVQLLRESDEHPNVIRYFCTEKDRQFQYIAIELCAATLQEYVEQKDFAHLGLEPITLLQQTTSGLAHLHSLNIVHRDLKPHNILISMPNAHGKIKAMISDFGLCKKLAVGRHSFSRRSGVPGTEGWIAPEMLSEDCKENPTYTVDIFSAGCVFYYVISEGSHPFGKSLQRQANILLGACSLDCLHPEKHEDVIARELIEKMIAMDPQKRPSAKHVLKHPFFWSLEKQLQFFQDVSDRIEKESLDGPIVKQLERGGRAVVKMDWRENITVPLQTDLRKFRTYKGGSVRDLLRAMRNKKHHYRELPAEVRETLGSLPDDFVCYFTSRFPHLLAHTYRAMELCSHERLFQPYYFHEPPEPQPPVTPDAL

`Cc1ccc2c(NS(=O)(=O)c3ccccc3Cl)cccc2c1Oc1ncccc1-c1ccnc(N[C@H]2CCCNC2)n1` [KIRA8] gave an IC50 [1] of 73 ± 5 nM.

For `O=c1c(O)c(-c2ccc(O)c(O)c2)oc2cc(O)cc(O)c12` [Qe, Quercetin], the IC50 [2] was 272 ± 150 nM.

In the case of `C[C@@H]1O[C@@H](Oc2c(-c3ccc(O)c(O)c3)oc3cc(O)cc(O)c3c2=O)[C@H](O)[C@H](O)[C@H]1O` [Qi, Quercitrin], the IC50 [2] is reported as 226 ± 70 nM.
